Data from US20230174497A1, “RHEIN AMIDE DERIVATIVE AND PREPARATION METHOD AND USE THEREOF, AND INHIBITOR OF HEPATOCELLULAR CARCINOMA (HCC) WITH SPECIFIC RECQL4 EXPRESSION” (Shandong First Medical University & Shandong Academy of …, priority 2021, published 2023).

Tests used:
hepatocytes LO2 = assay: CCK-8 cell proliferation assay, LO2 cells; type: cell-based; settings: Hepatocyte, 48 h culture, CCK-8, OD 450 nm, Mean ± S.E.M
Procedure: (§1) The effects of the above-prepared rhein amide derivatives on cell proliferation were detected by a CCK-8 kit.
(§2) The CCK-8 kit can evaluate a proliferation activity of cells by detecting an absorbance at a 450 nm wavelength. SNU398 and LO2 cells were digested to obtain a cell suspension, the cell suspension was diluted with a medium to a density of about 5×10^3 cells/well, 100 µl of cell liquid was added to each well, and a blank group and a negative control group were set up. About 1.0000 mg of the derivative was added in a 0.5 mL EP tube, mixed with dimethyl sulfoxide (DMSO) to prepare a 5×10^-2 M stock solution, and stored at -20° C.
(§3) The stock solutions of 21 compounds prepared in the examples and comparative examples were diluted to final concentrations of 100 µmol/L, 20 µmol/L, 4 µmol/L, 0.8 µmol/L, and 0.16 µmol/L separately using a concentration gradient stepwise dilution method. An original medium in a 96-well plate was discarded by aspiration, 100 µl of the dilutions of the 17 compounds were added to the 96-well plate, and three parallel wells were set up. The dilutions were culture in a cell culture incubator for 48 h. […] A stronger inhibitory ability led to a lower IC50 value, and results were listed in Table 1; statistical analysis and drawing of experimental data was conducted using Graphpad-prism 6.0 software, and a mean ± standard deviation was expressed as (Mean ± S.E.M).

HCC cells SNU398 = assay: CCK-8 cell proliferation assay, SNU398 cells; type: cell-based; settings: for IC50: Homo sapiens, SNU-398, SNU398 cells (high RECQL4 expression), 48 h culture, CCK-8, OD 450 nm, Mean ± S.E.M; for IC50 on HCC cells SNU398 compared with IC50 on hepatocytes LO2 (selectivity in words): SNU398 versus LO2, CCK-8, 48 h
Procedure: as §1, §2, §3

SMILES	IC50 (hepatocytes LO2)	melting point	IC50 (HCC cells SNU398)	IC50 on HCC cells SNU398 compared with IC50 on hepatocytes LO2 (selectivity in words) (HCC cells SNU398)
CC(=O)c1ccc(N2CCN(C(=O)c3cc(O)c4c(c3)C(=O)c3cccc(O)c3C4=O)CC2)cc1 [Comparative Example 10, 3-(4-(4-acetylphenyl)piperazin-1-carbonyl)-1,8-dihydroxyanthracene-9,10-dione]	104 ± 9.96 µM	270.1 to 272.2 °C	222 ± 18.7 µM	
CCOC(=O)C(CC(C)C)NC(=O)c1cc(O)c2c(c1)C(=O)c1cccc(O)c1C2=O (centres unmarked) [Comparative Example 3, ethyl(4,5-dihydroxy-9,10-dioxo-9,10-dihydroanthracene-2-carbonyl)leucinate]	57.1 ± 3.25 µM	167.9 to 170 °C	188 ± 94.4 µM	
COC(=O)C(C)NC(=O)c1cc(O)c2c(c1)C(=O)c1cccc(O)c1C2=O (centres unmarked) [Example 1, methyl(4,5-dihydroxy-9,10-dioxy-9,10-dihydroanthracene-2-carbonyl) alaninate]	5.41 µM	236.3 to 237.9 °C	0.46 ± 0.08 µM	much smaller than the IC50 on hepatocytes LO2
CCCCNC(=O)c1cc(O)c2c(c1)C(=O)c1cccc(O)c1C2=O [Example 6, N-butyl-4,5-dihydroxy-9,10-dioxy-9,10-dihydroanthracene-2-carboxamide]	113 ± 8.56 µM	215.2 to 215.9 °C	5.85 ± 0.49 µM	much smaller than the IC50 on hepatocytes LO2
CCOC(=O)C(NC(=O)c1cc(O)c2c(c1)C(=O)c1cccc(O)c1C2=O)C(C)CC (centres unmarked) [Comparative Example 4]	18.2 ± 1.56 µM	167 to 167.5 °C	47.1 ± 11.5 µM	
CCOC(=O)N1CCN(C(=O)c2cc(O)c3c(c2)C(=O)c2cccc(O)c2C3=O)CC1 [Example 7]	26.3 ± 15.8 µM	222.2 to 222.8 °C	19 ± 1.96 µM	
CCOC(=O)CCC(NC(=O)c1cc(O)c2c(c1)C(=O)c1cccc(O)c1C2=O)C(=O)OCC (centres unmarked) [Example 3, diethyl(4,5-dihydroxy-9,10-dioxo-9,10-dihydroanthracene-2-carbonyl) glutamate]	114 ± 4.11 µM	202 to 202.3 °C	66.8 ± 2.21 µM	
CC(C)CNC(=O)c1cc(O)c2c(c1)C(=O)c1cccc(O)c1C2=O [Comparative Example 8, 4,5-dihydroxy-N-isobutyl-9,10-dioxy-9,10-dihydroanthracene-2-carboxamide]	118 ± 12.3 µM			
CCCNC(=O)c1cc(O)c2c(c1)C(=O)c1cccc(O)c1C2=O [Example 5, 4,5-dihydroxy-9,10-dioxo-n-propyl-9,10-dihydroanthracene-2-carboxamide]	228 ± 10.8 µM	264.1 to 265 °C	116 ± 5.25 µM	
CCC(C)C(NC(=O)c1cc(O)c2c(c1)C(=O)c1cccc(O)c1C2=O)C(=O)OC (centres unmarked) [Comparative Example 2, methyl 2-(4,5-dihydroxy-9,10-dioxy-9,10-dihydroanthracene-2-carboxamide)-3-methylvalerate]	80.4 ± 2.36 µM	179.7 to 182.3 °C	470 ± 84.2 µM	
CCOC(=O)C(CCSC)NC(=O)c1cc(O)c2c(c1)C(=O)c1cccc(O)c1C2=O (centres unmarked) [Comparative Example 6, ethyl(4,5-dihydroxy-9,10-dioxo-9,10-dihydroanthracene-2-carbonyl)methioninate]	7.77 ± 0.45 µM	177.2 to 178 °C	19.8 ± 1.23 µM	
COc1ccc(CNC(=O)c2cc(O)c3c(c2)C(=O)c2cccc(O)c2C3=O)cc1 [Comparative Example 9, 4,5-dihydroxy-N-(4-methoxybenzyl)-9,10-dioxy-9,10-dihydroanthracene-2-carboxamide]	106 ± 9.72 µM	244.5 to 249.4 °C	111 ± 12.5 µM	
CCOC(=O)C(CC)NC(=O)c1cc(O)c2c(c1)C(=O)c1cccc(O)c1C2=O (centres unmarked) [Example 2, ethyl 2-(4,5-dihydroxy-9,10-dioxy-9,10-dihydroanthracene-2-carboxamide)butanoate]	104 ± 9.36 µM	196.7 to 197.2 °C	8.81 ± 0.78 µM	much smaller than the IC50 on hepatocytes LO2
CCOC(=O)C(Cc1ccccc1)NC(=O)c1cc(O)c2c(c1)C(=O)c1cccc(O)c1C2=O (centres unmarked) [Comparative Example 5, ethyl (4,5-dihydroxy-9,10-dioxy-9,10-dihydroanthracene-2-carbonyl) phenylalaninate]	228 ± 7.25 µM	171 to 172.7 °C	166 ± 7.62 µM	
CCOC(=O)CC(NC(=O)c1cc(O)c2c(c1)C(=O)c1cccc(O)c1C2=O)C(=O)OCC (centres unmarked) [Example 4, diethyl(4,5-dihydroxy-9,10-dioxo-9,10-dihydroanthracene-2-carbonyl)aspartate]	117 µM	174.7 to 175.2 °C	27.9 ± 3.45 µM	much smaller than the IC50 on hepatocytes LO2
COC(=O)C(CC(C)C)NC(=O)c1cc(O)c2c(c1)C(=O)c1cccc(O)c1C2=O (centres unmarked) [Comparative Example 1, methyl (4,5-dihydroxy-9,10-dioxo-9,10-dihydroanthracene-2-carbonyl)leucine]	0.81 ± 0.16 µM	175.1 to 176.3 °C	25.9 ± 6.94 µM	
CCOC(=O)C(NC(=O)c1cc(O)c2c(c1)C(=O)c1cccc(O)c1C2=O)C(C)C (centres unmarked) [Comparative Example 7, ethyl(4,5-dihydroxy-9,10-dioxo-9,10-dihydroanthracene-2-carbonyl)valerate]	13.7 ± 0.89 µM	202.1 to 202.7 °C	161 ± 4.53 µM	
